{
  "source": "paper PMC3947174",
  "about": "(Structure (London, England : 1993), 2013)",
  "molecules": {"B1": {"name": "N2P1 PDZ1 (protein)", "chain": "RPRLCRLVRGEQGYGFHLHGEKGRRGQFIRRVEPGSPAEAAALRAGDRLVEVNGVNVEGETHHQVVQRIKAVEGQTRLLVVDQETD"}, "B2": {"name": "N2P2 PDZ2 (protein)", "chain": "LRPRLCHLRKGPQGYGFNLHSDKSRPGQYIRSVDPGSPAARSGLRAQDRLIEVNGQNVEGLRHAEVVASIKAREDEARLLVVDPETD"}, "B3": {"name": "N1P1 PDZ1 (protein)", "chain": "LPRLCCLEKGPNGYGFHLHGEKGKLGQYIRLVEPGSPAEKAGLLAGDRLVEVNGENVEKETHQQVVSRIRAALNAVRLLVVDPETDE"}, "B4": {"name": "N1P2 PDZ2 (protein)", "chain": "RPRLCTMKKGPSGYGFNLHSDKSKPGQFIRSVDPDSPAEASGLRAQDRIVEVNGVCMEGKQHGDVVSAIRAGGDETKLLVVDRETDE"}},
  "key": {"N1P1 (NHERF1 PDZ1)": {"target": "T1, N1P1 (NHERF1 PDZ1) (Homo sapiens, UniProt O14745)", "T1 sequence (O14745 14-94 limits assumed)": "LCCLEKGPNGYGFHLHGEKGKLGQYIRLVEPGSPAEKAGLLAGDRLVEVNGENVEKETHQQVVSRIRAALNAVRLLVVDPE", "assay": "FP displacement binding to NHERF1 PDZ1"}, "N2P1 (NHERF2 PDZ1)": {"target": "N2P1 (NHERF2 PDZ1) (Homo sapiens, UniProt Q15599)", "assay": "FP displacement binding to NHERF2 PDZ1"}, "N2P2 (NHERF2 PDZ2)": {"target": "N2P2 (NHERF2 PDZ2) (Homo sapiens, UniProt Q15599)", "assay": "FP displacement binding to NHERF2 PDZ2"}, "CALP (CAL PDZ domain) [1]": {"target": "T2, CALP (CAL PDZ domain) (Homo sapiens, UniProt Q9HD26)", "assay": "FP competition", "type": "binding", "conditions": "reporter F*-iCAL36, PDZ ~[…] Kd, triplicate experiments"}, "N1P2 (NHERF1 PDZ2)": {"target": "T3, N1P2 (NHERF1 PDZ2) (Homo sapiens, UniProt O14745)", "T3 sequence (O14745 154-234 limits assumed)": "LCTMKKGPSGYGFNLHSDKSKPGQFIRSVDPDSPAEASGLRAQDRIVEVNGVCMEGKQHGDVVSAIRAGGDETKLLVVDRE", "assay": "FP displacement binding to NHERF1 PDZ2"}, "iCAL36": {"target": "iCAL36", "assay": "fluorescence polarization competition", "conditions": "cited from earlier work"}, "CFTR (Homo sapiens)": {"target": "CFTR (Homo sapiens)", "assay": "fluorescence polarization competition", "conditions": "cited from earlier work"}, "iCAL36L": {"target": "iCAL36L", "assay": "fluorescence polarization competition", "conditions": "cited from earlier work"}, "CALP (CAL PDZ domain) [2]": {"target": "T2, CALP (CAL PDZ domain)", "conditions": "K*-designed hexamer; ref Roberts et al., 2012; cited from earlier work"}, "iCAL36QDTRL": {"target": "T4, iCAL36QDTRL", "T4 chain": "ANSRWQDTRL", "assay": "fluorescence polarization competition"}, "iCAL36TRL": {"target": "T5, iCAL36TRL", "T5 chain": "ANSRWPTTRL", "assay": "fluorescence polarization competition"}, "iCAL36Q-4": {"target": "T6, iCAL36Q-4", "T6 chain": "ANSRWQTSII", "assay": "fluorescence polarization competition"}, "iCAL36VQD-3": {"target": "T7, iCAL36VQD-3", "T7 chain": "ANSRVQDSII", "assay": "fluorescence polarization competition"}, "F*-CFTR6": {"target": "T8, F*-CFTR6 (Homo sapiens)", "T8 chain": "{Fluorescein-Ahx}-VQDTRL", "assay": "fluorescence polarization"}},
  "note": "Ends that are not written are not given here. Ahx = NCCCCCC(=O)O",
  "data": [
    {"molecule": "ANSRWPTTRL [iCAL36TRL]", "values": [
      {"measurement": "Ki", "setting": "N1P1 (NHERF1 PDZ1)", "value": "8 ± 1.4", "unit": "µM"},
      {"measurement": "Ki", "setting": "N2P1 (NHERF2 PDZ1)", "value": "8.7 ± 3.1", "unit": "µM"},
      {"measurement": "Ki", "setting": "N2P2 (NHERF2 PDZ2)", "value": "16500 ± 3900", "unit": "nM"}
    ]},
    {"molecule": "CC(C)C[C@H](NC(=O)[C@H](CCCNC(=N)N)NC(=O)[C@@H](NC(=O)[C@@H](NC(=O)[C@H](CCC(N)=O)NC(=O)[C@@H](NC(=O)[C@H](CCC(=O)O)NC(=O)[C@H](CCC(=O)O)NC(=O)[C@H](CCC(=O)O)NC(=O)[C@@H](N)[C@@H](C)O)C(C)C)[C@@H](C)O)[C@@H](C)O)C(=O)O", "note": "[CFTRT^-3]", "values": [
      {"measurement": "Ki", "setting": "CALP (CAL PDZ domain) [1]", "value": "18 ± 5.5", "unit": "µM"},
      {"measurement": "Ki", "setting": "N1P1 (NHERF1 PDZ1)", "value": "0.76 ± 0.51", "unit": "µM"},
      {"measurement": "Ki", "setting": "N1P2 (NHERF1 PDZ2)", "value": "4.6 ± 1.6", "unit": "µM"},
      {"measurement": "Ki", "setting": "N2P1 (NHERF2 PDZ1)", "value": "1.3 ± 0.4", "unit": "µM"},
      {"measurement": "Ki", "setting": "N2P2 (NHERF2 PDZ2)", "value": "450 ± 250", "unit": "nM"}
    ]},
    {"molecule": "N2P1 PDZ1 (from UniProt Q15599)", "values": [
      {"measurement": "Ki", "setting": "iCAL36", "value": "> 1", "unit": "mM"}
    ]},
    {"molecule": "CC[C@H](C)[C@H](NC(=O)[C@@H](NC(=O)[C@H](CO)NC(=O)[C@@H](NC(=O)[C@H](CCC(N)=O)NC(=O)[C@H](Cc1c[nH]c2ccccc12)NC(=O)[C@H](CCCNC(=N)N)NC(=O)[C@H](CO)NC(=O)[C@H](CC(N)=O)NC(=O)[C@H](C)N)[C@@H](C)O)[C@@H](C)CC)C(=O)O", "note": "[iCAL36Q^-4]", "values": [
      {"measurement": "Ki", "setting": "N1P1 (NHERF1 PDZ1)", "value": "280 ± 100", "unit": "µM"},
      {"measurement": "Ki", "setting": "N1P2 (NHERF1 PDZ2)", "value": "> 1000", "unit": "µM"},
      {"measurement": "Ki", "setting": "N2P1 (NHERF2 PDZ1)", "value": "300 ± 100", "unit": "µM"}
    ]},
    {"molecule": "ANSRVQDTRL [iCAL36VQDTRL]", "values": [
      {"measurement": "Ki", "setting": "N1P1 (NHERF1 PDZ1)", "value": "2.5 ± 0.3", "unit": "µM"},
      {"measurement": "Ki", "setting": "N1P2 (NHERF1 PDZ2)", "value": "6.5 ± 2.3", "unit": "µM"},
      {"measurement": "Ki", "setting": "N2P1 (NHERF2 PDZ1)", "value": "3.8 ± 1.4", "unit": "µM"},
      {"measurement": "Ki", "setting": "N2P2 (NHERF2 PDZ2)", "value": "940 ± 420", "unit": "nM"}
    ]},
    {"molecule": "N2P2 PDZ2 (from UniProt Q15599)", "values": [
      {"measurement": "Ki", "setting": "iCAL36", "value": "> 1", "unit": "mM"}
    ]},
    {"molecule": "N1P2 PDZ2 (from UniProt O14745)", "values": [
      {"measurement": "Ki", "setting": "CFTR (Homo sapiens)", "value": 1800, "unit": "nM"},
      {"measurement": "Ki", "setting": "iCAL36L", "value": "> 1", "unit": "mM"},
      {"measurement": "Ki", "setting": "iCAL36", "value": "> 1", "unit": "mM"}
    ]},
    {"molecule": "N1P1 PDZ1 (from UniProt O14745)", "values": [
      {"measurement": "Ki", "setting": "iCAL36", "value": "> 1", "unit": "mM"}
    ]},
    {"molecule": "WQVTRV [kCAL01]", "values": [
      {"measurement": "CALP affinity in words", "setting": "CALP (CAL PDZ domain) [2]", "value": "highest affinity observed to date for a hexameric sequence"}
    ]},
    {"molecule": "ANSRVQDSII [iCAL36VQD^-3]", "values": [
      {"measurement": "Ki", "setting": "CALP (CAL PDZ domain) [1]", "value": "> 1000", "unit": "µM"},
      {"measurement": "Ki", "setting": "N1P1 (NHERF1 PDZ1)", "value": "> 1000", "unit": "µM"},
      {"measurement": "Ki", "setting": "N1P2 (NHERF1 PDZ2)", "value": "> 1000", "unit": "µM"},
      {"measurement": "Ki", "setting": "N2P1 (NHERF2 PDZ1)", "value": "> 1000", "unit": "µM"}
    ]},
    {"molecule": "ANSRWQDTRL [iCAL36QDTRL]", "values": [
      {"measurement": "Ki", "setting": "N1P1 (NHERF1 PDZ1)", "value": "1.5 ± 0.2", "unit": "µM"},
      {"measurement": "Ki", "setting": "N1P2 (NHERF1 PDZ2)", "value": "6.7 ± 2.4", "unit": "µM"},
      {"measurement": "Ki", "setting": "N2P1 (NHERF2 PDZ1)", "value": "3.1 ± 1.4", "unit": "µM"},
      {"measurement": "Ki", "setting": "N2P2 (NHERF2 PDZ2)", "value": "1100 ± 600", "unit": "nM"}
    ]},
    {"molecule": "B1", "values": [
      {"measurement": "Ki", "setting": "iCAL36QDTRL", "value": 3100, "unit": "nM"},
      {"measurement": "Ki", "setting": "iCAL36TRL", "value": 8.7, "unit": "µM"},
      {"measurement": "Ki", "setting": "iCAL36Q-4", "value": 300, "unit": "µM"},
      {"measurement": "Ki", "setting": "iCAL36VQD-3", "value": "> 1", "unit": "mM"}
    ]},
    {"molecule": "B2", "values": [
      {"measurement": "Ki", "setting": "iCAL36QDTRL", "value": 1100, "unit": "nM"},
      {"measurement": "Ki", "setting": "iCAL36TRL", "value": 16.5, "unit": "µM"},
      {"measurement": "Ki", "setting": "iCAL36Q-4", "value": 450, "unit": "µM"}
    ]},
    {"molecule": "B3", "values": [
      {"measurement": "Kd", "setting": "F*-CFTR6", "value": 370, "unit": "nM"},
      {"measurement": "Ki", "setting": "iCAL36TRL", "value": 8, "unit": "µM"},
      {"measurement": "Ki", "setting": "iCAL36Q-4", "value": 280, "unit": "µM"},
      {"measurement": "Ki", "setting": "iCAL36VQD-3", "value": "> 1", "unit": "mM"}
    ]},
    {"molecule": "B4", "values": [
      {"measurement": "Ki", "setting": "iCAL36TRL", "value": 110, "unit": "µM"},
      {"measurement": "Ki", "setting": "iCAL36Q-4", "value": "> 1000", "unit": "µM"},
      {"measurement": "Ki", "setting": "iCAL36VQD-3", "value": "> 1", "unit": "mM"}
    ]}
  ]
}
